Literature values in patent US20110020480A1, “USE OF BENZOXAZINOIDS-CONTAINING CEREAL GRAIN PRODUCTS FOR HEALTH-IMPROVING PURPOSES” (priority 2008, published 2011).

Assays:
[1] = test system: overweight women
[2] = test system: human males
[3] = daily dose

For COc1ccc2[nH]c(=O)oc2c1 [6-MBOA, 6-methoxy-benzoxazolin-2-one], the “cumulative daily dose for obtaining appetite suppression” value [1] is given as 15 µg, the “effect on depression or mood” value [2] is given as “significant positive effect” and the “therapeutic dose for treating depressive states of mind” value [3] is given as “approx. 15 mg daily”.
